Test [1] has as its target T1, Tyrosinase (Homo sapiens, UniProt P14679).
T1 sequence (P14679 whole entry): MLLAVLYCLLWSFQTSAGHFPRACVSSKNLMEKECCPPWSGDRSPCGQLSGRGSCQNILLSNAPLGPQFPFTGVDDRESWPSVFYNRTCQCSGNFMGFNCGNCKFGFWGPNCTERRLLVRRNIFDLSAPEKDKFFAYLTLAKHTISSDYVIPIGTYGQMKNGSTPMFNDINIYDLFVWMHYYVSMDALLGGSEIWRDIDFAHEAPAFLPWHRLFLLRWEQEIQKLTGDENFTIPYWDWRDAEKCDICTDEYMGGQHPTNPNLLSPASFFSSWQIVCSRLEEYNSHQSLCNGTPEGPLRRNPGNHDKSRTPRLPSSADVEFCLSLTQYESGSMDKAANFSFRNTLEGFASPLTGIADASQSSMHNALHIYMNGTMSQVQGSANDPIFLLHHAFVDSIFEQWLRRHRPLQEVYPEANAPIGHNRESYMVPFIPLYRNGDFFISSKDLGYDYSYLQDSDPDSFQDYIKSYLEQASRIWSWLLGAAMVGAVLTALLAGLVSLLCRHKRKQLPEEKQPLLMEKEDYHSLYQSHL
Kind of test: Inhibition of tyrosinase (unknown origin) using DOPA as substrate incubated for 15 min by spectrophotometer assay.

Another test has as its system Fusobacterium nucleatum. Kind of test: Antibacterial activity against Fusobacterium nucleatum ATCC 10953 assessed as inhibition of bacterial growth incubated for 48 hrs by microbroth dilution method. The format is functional. A general note: Dilution methods test growth across graded concentrations, often in twofold steps.
In test [2] the target is T2, Tyrosinase (Agaricus bisporus, UniProt O42713).
T2 sequence (O42713 whole entry): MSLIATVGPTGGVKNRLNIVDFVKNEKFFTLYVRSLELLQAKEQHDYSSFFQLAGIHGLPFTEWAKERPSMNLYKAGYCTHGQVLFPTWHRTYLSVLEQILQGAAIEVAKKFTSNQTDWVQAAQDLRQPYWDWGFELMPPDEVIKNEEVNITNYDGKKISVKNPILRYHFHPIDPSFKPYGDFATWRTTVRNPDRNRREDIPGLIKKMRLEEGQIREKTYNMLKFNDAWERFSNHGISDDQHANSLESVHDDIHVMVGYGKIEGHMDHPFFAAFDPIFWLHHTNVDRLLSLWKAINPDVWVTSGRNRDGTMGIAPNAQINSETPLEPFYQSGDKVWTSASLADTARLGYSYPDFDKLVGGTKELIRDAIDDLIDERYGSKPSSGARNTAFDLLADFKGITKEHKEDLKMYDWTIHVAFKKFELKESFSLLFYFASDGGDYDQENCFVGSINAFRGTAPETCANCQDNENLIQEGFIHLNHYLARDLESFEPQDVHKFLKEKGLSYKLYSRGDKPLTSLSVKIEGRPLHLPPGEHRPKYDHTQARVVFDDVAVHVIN
Kind of test: Inhibition of mushroom tyrosinase using L-DOPA as substrate incubated for 20 mins by microplate reader assay.

Test [3] concerns Bacillus subtilis. In words: Antibacterial activity against Bacillus subtilis ATCC 66333 assessed as inhibition of bacterial growth incubated for 18 to 24 hrs by serial dilution method. Particulars: time 18-24 hrs. The format is functional.
Another test concerns Proteus vulgaris. In words: Antibacterial activity against Proteus vulgaris ATCC 13315 assessed as inhibition of bacterial growth incubated for 18 to 24 hrs by serial dilution method. The format is functional. Particulars: time 18-24 hrs.
Test [4] has as its system Staphylococcus epidermidis. In words: Antibacterial activity against Staphylococcus epidermidis ATCC 14990 assessed as inhibition of bacterial growth incubated for 18 to 24 hrs by serial dilution method. The format is functional. Particulars: time 18-24 hrs.
A further test relates to Salmonella typhimurium. In words: Antibacterial activity against Salmonella enterica subsp. enterica serovar Typhimurium ATCC 14028 assessed as inhibition of bacterial growth incubated for 18 to 24 hrs by serial dilution method. It counts as functional. Particulars: time 18-24 hrs.
The subject of the next test is Enterobacter cloacae. Kind of test: Antibacterial activity against Enterobacter cloacae ATCC 13047 assessed as inhibition of bacterial growth incubated for 18 to 24 hrs by serial dilution method. The format is functional. Particulars: time 18-24 hrs.
Another test relates to Klebsiella pneumoniae. In words: Antibacterial activity against Klebsiella pneumoniae ATCC 13883 assessed as inhibition of bacterial growth incubated for 18 to 24 hrs by serial dilution method. The following applies: time 18-24 hrs. The format is functional.
Test [5] addresses T2, Tyrosinase. In words: Inhibition of mushroom tyrosinase using L-DOPA as substrate pre-incubated for 10 mins followed by substrate addition and measured after 20 mins by microplate reader assay.
Test [6] deals with Staphylococcus aureus. In words: microbe, parasite or virus in culture. The following applies: ATTC 25923.
Description: Antibacterial activity against Staphylococcus aureus ATTC 25923 assessed as inhibition of bacterial growth by broth microdilution method
Test [7] deals with Staphylococcus epidermidis. Kind of test: microbe, parasite or virus in culture. The following applies: TISTR 517.
Description: Antibacterial activity against Staphylococcus epidermidis TISTR 517 assessed as inhibition of bacterial growth by broth microdilution method
In test [8] the test system is Staphylococcus aureus. Kind of test: Antibacterial activity against Methicillin-resistant Staphylococcus aureus assessed as inhibition of bacterial growth by broth microdilution method.
Test [9] relates to Staphylococcus aureus. In words: Antibacterial activity against Staphylococcus aureus assessed as zone of inhibition. It counts as functional.
For test [10], the system named is Bacillus subtilis. In words: Antibacterial activity against Bacillus subtilis assessed as zone of inhibition at 300 ug/ml. The format is functional. Particulars: read-out: IZ.
For test [11], the system named is Staphylococcus epidermidis. Kind of test: Antibacterial activity against Staphylococcus epidermidis ATCC 35984 assessed as inhibition of bacterial growth incubated for 24 hrs by two-fold serial dilution method. The format is functional.
Test [12] addresses T2, Tyrosinase. Kind of test: Inhibition of mushroom tyrosinase using L-DOPA as substrate incubated for 10 mins by spectrophotometer assay.
The subject of test [13] is Staphylococcus aureus. In words: Antibacterial activity against Staphylococcus aureus ATCC 13301 assessed as zone of inhibition at 10 ug per disk incubated for 12 hrs by paper-disk diffusion assay. It counts as functional. The following applies: read-out: IZ. Background: Agar diffusion results depend on both activity and mobility in agar.
For test [14], the system named is Bacillus subtilis. In words: Antibacterial activity against Bacillus subtilis ATCC 9372 assessed as zone of inhibition at 10 ug per disk incubated for 12 hrs by paper-disk diffusion assay. It counts as functional. The following applies: read-out: IZ.
In another test the test system is Bacillus cereus. Kind of test: Antibacterial activity against Bacillus cereus ATCC 27348 assessed as zone of inhibition at 10 ug per disk incubated for 12 hrs by paper-disk diffusion assay. It counts as functional. The following applies: read-out: IZ.
The test system of test [15] is Staphylococcus aureus. In words: Antibacterial activity against Methicillin-resistant Staphylococcus aureus assessed as inhibition of bacterial growth by agar dilution method. The format is functional. In general terms: In agar dilution, organisms are placed on agar that contains the substance at set levels.
The next test has as its system Enterococcus faecalis. In words: Antibacterial activity against Enterococcus faecalis assessed as zone of inhibition. The format is functional, organism-based.

In brackets after ≈: the same amount, converted by molar mass.

What is called IC50 is the concentration needed to halve the response being measured. Higher therefore signals weaker potency in that assay.

Regarding `CC(C)=CCC[C@@](C)(O)[C@@H]1CC=C(C)CC1`, inhibition against Tyrosinase [1] was half-maximal at 2860 µM (IC50). For the same molecule, the MIC in the test with Fusobacterium nucleatum is 8 µg/mL (≈ 36 µM).
`O=c1cc2n(c3ccccc13)[B-](F)(F)[n+]1ccccc1-2`: the IC50 at Tyrosinase [2] was over 741 µM. In addition, the MIC (in the test with Bacillus subtilis [3]; with Proteus vulgaris; in test [4]; in the test on Salmonella typhimurium; in the test with Enterobacter cloacae; in the test on Klebsiella pneumoniae) was at most 18.8 µg/mL in each case.
For `Nc1ccccc1C1=NNC(c2ccccn2)C1` (configuration not stated), on Tyrosinase [2], half-maximal inhibition (IC50) required 420 µM. Also, the MIC (in the test on Bacillus subtilis [3]; in the test with Proteus vulgaris; in [4]; in the test on Salmonella typhimurium; in the test on Enterobacter cloacae; with Klebsiella pneumoniae) was 18.8 µg/mL (≈ 78.7 µM) in each case.
`O=c1c(O[C@@H]2O[C@H](CO)[C@H](O)[C@H](O)[C@H]2O)c(-c2ccc(O)c(O)c2)oc2cc(O)cc(O)c12` [HYPEROSIDE] had an IC50 against Tyrosinase [1] of 1.64 µM.
In turn, `Nc1ccccc1C1=NNC(c2ccncc2)C1` (configuration not stated) showed an IC50 on Tyrosinase [2] of 420 µM. For the same molecule, in [4], the MIC worked out at 37.5 µg/mL (≈ 157 µM).
For `OCCc1ccccc1` [PHENYLETHYL ALCOHOL], the IC50 at Tyrosinase [1] was 2580 µM. In addition, the MIC with Fusobacterium nucleatum is 8 µg/mL (≈ 65.5 µM).
The molecule `Nc1ccccc1C1=NNC(c2cccnc2)C1` (configuration not stated) gave an IC50 against Tyrosinase [2] of 420 µM. For the same molecule, in test [4], the MIC amounted to 150 µg/mL (≈ 629 µM).
`CC(C)=CCC/C(C)=C/Cc1c(O)ccc(C=O)c1O` had an IC50 against Tyrosinase [5] of over 729 µM. The MIC (against Staphylococcus aureus [6]; in test [7]; in the test on Staphylococcus aureus [8]) was under 8 µg/mL in each case.
With `CN[C@@H]1[C@H](O[C@H]2[C@H](O[C@H]3[C@H](O)[C@@H](O)[C@H](N=C(N)N)[C@@H](O)[C@@H]3N=C(N)N)O[C@@H](C)[C@]2(O)C=O)O[C@@H](CO)[C@H](O)[C@H]1O` [STREPTOMYCIN], the “inhibition zone (IZ)” value in the test with Staphylococcus aureus [9] is 20.3 mm.
Molecule `C[C@@H]1O[C@@H](OC[C@H]2O[C@@H](Oc3c(-c4ccc(O)c(O)c4)oc4cc(O)cc(O)c4c3=O)[C@H](O)[C@@H](O)[C@@H]2O)[C@H](O)[C@H](O)[C@H]1O` [RUTIN] gave an IC50 against Tyrosinase [1] of 1.4 µM.
Turning to `CC1(C)S[C@@H]2[C@H](NC(=O)[C@H](N)c3ccccc3)C(=O)N2[C@H]1C(=O)O` [AMPICILLIN], the zone of inhibition at 300 µg/mL in the test on Bacillus subtilis [10] was 17.9 mm.
At Tyrosinase [2], `COc1c(N2C[C@@H]3CCCN[C@@H]3C2)c(F)cc2c(=O)c(C(=O)O)cn(C3CC3)c12` [MOXIFLOXACIN] had an IC50 of 2.99 µM.
Consider `C[C@@H]1O[C@@H](OC[C@H]2O[C@@H](Oc3c(-c4ccc(O)cc4)oc4cc(O)cc(O)c4c3=O)[C@H](O)[C@@H](O)[C@@H]2O)[C@H](O)[C@H](O)[C@H]1O` [NICOTIFLOROSIDE], for which the IC50 against Tyrosinase [1] was 1.53 µM.
In turn, `CCn1cc(C(=O)O)c(=O)c2cc(F)c(N3CCNCC3)cc21` [NORFLOXACIN] gave an IC50 at Tyrosinase [2] of 2.19 µM.
`F[B-]1(F)Nc2ccccc2C2=[N+]1NC(c1ccccn1)C2` (configuration not stated) showed an IC50 against Tyrosinase [2] of 350 µM. In addition, the MIC (in the test on Bacillus subtilis [3]; with Proteus vulgaris; in test [4]; in the test on Salmonella typhimurium; in the test with Enterobacter cloacae; in the test with Klebsiella pneumoniae) was 37.5 µg/mL (≈ 131 µM) each time.
For the molecule `C=C(C)C(CC=C(C)C)Cc1c(O)cc(O)c2c1O[C@H](c1ccc(O)cc1O)CC2=O` (some centres not stated), the MIC in [11] is 3.12 µg/mL (≈ 7.36 µM). Besides, at Tyrosinase [12], it took 4.71 µM to reach half-maximal inhibition (IC50). The zone of inhibition at 10 µg/disc in the test on Staphylococcus aureus [13], in the test on Bacillus subtilis [14] and in the test with Bacillus cereus was 14 mm in each case.
`F[B-]1(F)Nc2ccccc2C2=[N+]1NC(c1cccnc1)C2` (configuration not stated): the IC50 on Tyrosinase [2] is 350 µM. The MIC in test [4] came to 18.8 µg/mL (≈ 65.5 µM).
Regarding `O=c1cc(-c2ccc(O)c(O)c2)oc2cc(O)cc(O)c12` [LUTEOLIN], in the test with Staphylococcus aureus [15], the MIC came out at 31.2 µg/mL (≈ 109 µM). In addition, it took 2.14 µM to reach half-maximal inhibition against Tyrosinase [1] (IC50).
For the molecule GENTAMICIN, the inhibition zone (IZ) with Enterococcus faecalis stood at 10.6 mm.
For `C=C(C)C(CC=C(C)C)Cc1c(O)cc(OC)c2c1O[C@H](c1ccc(O)cc1O)CC2=O` (some centres not stated) [KURARINONE], the IC50 on Tyrosinase [12] was 2.19 µM. The zone of inhibition at 10 µg/disc with Staphylococcus aureus [13], in the test with Bacillus subtilis [14] and in the test on Bacillus cereus was 14 mm in each case.
In turn, `F[B-]1(F)Nc2ccccc2C2=[N+]1NC(c1ccncc1)C2` (configuration not stated) had an IC50 on Tyrosinase [2] of over 699 µM. In addition, in test [4], the MIC amounted to 37.5 µg/mL (≈ 131 µM).
Consider `C=C(C)C(CCC(C)(C)O)Cc1c(O)cc(OC)c2c1O[C@H](c1ccc(O)cc1O)CC2=O` (some centres not stated), for which the IC50 on Tyrosinase [12] was 0.11 µM.
